US20210330611A1, “THERAPY FOR NEUROLOGICAL DISEASES/DISORDERS” (priority 2020, published 2021)
Counter-ions that a name gives are not always drawn. Like-named read-outs stand apart in the source and are kept apart here.

Columns and labels:
[1] = tested on: fibrin-induced microglia activation; experiment: Image-based assay of fibrin-induced microglia activation (HTS and dose response); type: cell-based, rat; conditions: for inhibition at 10 µM / IC50: Rattus norvegicus, Microglia; for inhibition at 10 µM: read-out: Fibrin % inhibition
[2] = tested on: LPS-induced microglia activation; experiment: Image-based assay of LPS-induced microglia activation (HTS and dose response); type: cell-based, rat; conditions: for inhibition at 10 µM / IC50: Rattus norvegicus, Microglia; for inhibition at 10 µM: read-out: LPS % inhibition
[3] = tested on: fibrin- and LPS-induced microglia activation; experiment: cells; type: cell-based, rat
primary rat microglia [4] = tested on: primary rat microglia;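 as to Fibrin % cell toxicity: share of dead cells sized under 150 µm2 at 10 µM in fibrin-stimulated microglia HTS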
primary rat microglia [5] = tested on: primary rat microglia; remark: listed apart in the source;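 as to Fibrin % cell toxicity: share of dead cells sized under 150 µm2 at 10 µM in fibrin-stimulated microglia HTS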
[6] = primary microglia HTS, fibrin stimulation, compounds at 10 μM
[7] = primary microglia HTS, LPS stimulation, compounds at 10 μM
[8] = classification by fibrin and LPS inhibition, HTS at 10 μM
[9] = primary microglia HTS, fibrin stimulation, increased cell size (>800 μm^2) as marker of activation
[10] = 48 h, primary microglia HTS, LPS stimulation, increased cell size (>800 μm^2) as marker of activation
[11] = quadrant by fibrin and LPS inhibition in HTS of 1907 compounds
[12] = primary microglia HTS, fibrin stimulation, compounds at 10 μM, 10 µM

SMILES	inhibition at 10 µM [1, 6] [%]	inhibition at 10 µM [2, 7] [%]	Quadrant (FIG. 5b) [3, 8]	Fibrin % cell toxicity (primary rat microglia [4]; rat) [%]	LPS % cell toxicity (primary rat microglia [5]; rat) [%]	inhibition at 10 µM [1] [%]	Quadrant (FIG. 5b) [3]	inhibition at 10 µM [2] [%]	also measured
CC(=O)C1C(=O)C=C(C)OC1=O (centres unmarked) [Dehydroacetic Acid]	-36	2	Q4	0	0				
CNCCCN1c2ccccc2CCc2ccccc21 [Desipramine hydrochloride, reference compound]				1	4				IC50 ([1]; Table 7, read-out: fib_IC50): 1.62 µM; inhibition at 10 µM [1, 9]: -2%; inhibition at 10 µM [2, 10]: 83%; IC50 ([2]; Table 7, read-out: LPS_IC50): 0.002 µM; Activity [3]: fib/LPS; Quadrant (FIG. 5b) ([3]; Table 2, screen at 10 μM): Q1; Quadrant (FIG. 5b) [3, 11]: Q1
CN(C)CC(c1ccc(O)cc1)C1(O)CCCCC1 (centres unmarked) [Desvenlafaxine]	13	3	Q4	1	1				
CC(=O)OCC(=O)[C@@]1(O)[C@H](C)C[C@H]2[C@@H]3CCC4=CC(=O)C=C[C@]4(C)[C@@]3(F)[C@@H](O)C[C@@]21C [Dexamethasone acetate, reference compound]				4	7	112	Q2		IC50 ([1]; read-out: fib_IC50 (uM)): 0.002 µM; inhibition at 10 µM ([2]; 48 h): 105%; IC50 ([2]; read-out: LPS_IC50 (uM)): 0.002 µM
CN(C)CC[C@@H](c1ccc(Cl)cc1)c1ccccn1 [Dexchlorpheniramine]	-8	11		1	0		Q4		
CC(C)Cc1ccc([C@H](C)C(=O)O)cc1 [Dexibuprofen]	-3	13	Q4	1	0				
CC(=O)Nc1c(I)c(NC(C)=O)c(I)c(C(=O)O)c1I [Diatrizoate]				0	0	4	Q4	5	
COc1ccc(Cc2cnc(N)nc2N)cc1OC [Diaveridine]	-8	13	Q4	1	1				
NC[C@@H]1CC[C@@H](N)[C@@H](O[C@H]2[C@H](O)[C@@H](O[C@H]3O[C@H](CO)[C@@H](O)[C@H](N)[C@H]3O)[C@H](N)C[C@@H]2N)O1 [Dibekacin]				1	1	10	Q4	20	
COP(=O)(OC)OC=C(Cl)Cl [Dichlorvos]	-1	19	Q4	1	1				
O=c1oc2ccccc2c(O)c1Cc1c(O)c2ccccc2oc1=O [Dicoumarol]	-24	18	Q4	1	0				
O=c1[nH]cnc2c1ncn2[C@H]1CC[C@@H](CO)O1 [Didanosine]	-8	-2	Q4	1	0				
CC/C(=C(/CC)c1ccc(O)cc1)c1ccc(O)cc1 [Diethylstilbestrol]				1	0	-26	Q4	16	
O=C(O)c1cc(-c2ccc(F)cc2F)ccc1O [Diflunisal]	-62	15	Q4	0	0				
COc1ccc([C@@H]2Sc3ccccc3N(CCN(C)C)C(=O)[C@@H]2OC(C)=O)cc1 [Diltiazem Hydrochloride]			Q4	0	0				Fibrin % inhibition [1, 12]: −5%; LPS % inhibition ([2]; primary microglia HTS, LPS stimulation, compounds at 10 μM, 10 µM): 15%
COc1ccc([C@@H]2Sc3ccccc3N(CCN(C)C)C(=O)[C@@H]2OC(C)=O)cc1 [Diltiazem]		9	Q4	1	0				Fibrin % inhibition [1, 12]: 21%
OCC(S)CS (centres unmarked) [Dimercaptopropanol, Dimercaprol]			Q4						Fibrin % inhibition [1, 6]: 49%; LPS % inhibition [2, 7]: 16%; Fibrin % cell toxicity (primary rat microglia [4]): 1%; LPS % cell toxicity (primary rat microglia [5]): 0%

SMILES	inhibition at 10 µM [1, 6] [%]	inhibition at 10 µM [2, 7] [%]	Quadrant (FIG. 5b) [3, 8]	Fibrin % cell toxicity (primary rat microglia [4]; rat) [%]	LPS % cell toxicity (primary rat microglia [5]; rat) [%]	inhibition at 10 µM [1] [%]	Quadrant (FIG. 5b) [3]	inhibition at 10 µM [2] [%]	also measured
Cc1ncc([N+](=O)[O-])n1C [Dimetridazole]	-16	15	Q4	1	1				
CCN(CC)C(=S)SSC(=S)N(CC)CC [Disulfiram]				90	75				inhibition at 10 µM [1, 9]: 114%; inhibition at 10 µM [2, 10]: 131%; Quadrant (FIG. 5b) [3, 11]: Q2
O=c1[nH]c2ccccc2n1CCCN1CCC(n2c(=O)[nH]c3cc(Cl)ccc32)CC1 [Domperidone]				1	0	20	Q4	15	
NCCc1ccc(O)c(O)c1 [Dopamine]				1	0	-17	Q4	9	
CCN[C@H]1C[C@H](C)S(=O)(=O)c2sc(S(N)(=O)=O)cc21 [Dorzolamide]				1	1	-40	Q4	15	
CNCC[C@H](Oc1cccc2ccccc12)c1cccs1 [Duloxetine]				0	0	22	Q4	24	
C[C@]12C=CC(=O)N[C@@H]1CC[C@@H]1[C@@H]2CC[C@]2(C)[C@@H](C(=O)Nc3cc(C(F)(F)F)ccc3C(F)(F)F)CC[C@@H]12 [Dutasteride]				1	0	7	Q4	22	
Clc1ccc(COC(Cn2ccnc2)c2ccc(Cl)cc2Cl)cc1 (centres unmarked) [Econazole]				0	0	0	Q4	18	
O=c1oc2c(O)c(O)cc3c(=O)oc4c(O)c(O)cc1c4c23 [Ellagic Acid]	-5	24	Q4	1	0				
Nc1nc(=O)n([C@@H]2CS[C@H](CO)O2)cc1F [Emtricitabine]				1	1	-73	Q4	11	
CCOC(=O)[C@H](CCc1ccccc1)N[C@@H](C)C(=O)N1CCC[C@H]1C(=O)O [Enalapril]	24	6	Q4	1	1				
NC1=NCC2c3ccccc3Cc3ccccc3N12 (centres unmarked) [Epinastine]				1	0	-38	Q4	-15	
COc1cccc2c1C(=O)c1c(O)c3c(c(O)c1C2=O)C[C@@](O)(C(=O)CO)C[C@@H]3O[C@H]1C[C@H](N)[C@@H](O)[C@H](C)O1 [Epirubicin, Epirubicin Hydrochloride]									Fibrin % inhibition [1, 9]: 113%; LPS % inhibition ([2]; primary microglia HTS, LPS stimulation, increased cell size (>800 μm^2) as marker of activation): 123%; Quadrant (FIG. 5b) [3, 11]: Q2; Fibrin % cell toxicity (primary rat microglia [4]): 79%; LPS % cell toxicity (primary rat microglia [5]): 58%
C=C1CC[C@H](O)C/C1=C/C=C1\CCC[C@]2(C)[C@@H]([C@H](C)/C=C/[C@H](C)C(C)C)CC[C@@H]12 [Ergocalciferol]	-6	7	Q4	1	0				
C#Cc1cccc(Nc2ncnc3cc(OCCOC)c(OCCOC)cc23)c1 [Erlotinib]	-52	-8	Q4	1	0				
CC[C@@H](CO)NCCN[C@@H](CC)CO [Ethambutol]	12	14	Q4	1	1				
CCc1cccc2c3c([nH]c12)C(CC)(CC(=O)O)OCC3 (centres unmarked) [Etodolac]	-87	14	Q4	0	1				
